Data set [1] relates to Mus musculus. Nature of the data set: Upregulation of p-NF-kappaB p65 protein expression in liver of KM mouse at 1.65 mmol/Kg, IG administered via gavage measured after 1 month by Western blot analysis. The data set is classed as functional. As to conditions: time 1.0 months. (Immunoblotting shows a protein as a band on a membrane.)
Data set [2] in a line: Hepatotoxicity in KM mouse assessed as appearance of loose cytoplasm at 1.65 mmol/Kg, IG administered via gavage by H and E staining based analysis. The data set is classed as toxicity. As to conditions: in vivo, po.
The subject of data set [3] is Mus musculus. Nature of the data set: Induction of oxidative stress in KM mouse assessed as reduction in SOD level in plasma at 1.65 mmol/Kg, IG administered via gavage measured for 1 month. The data set is classed as functional, organism-based. The settings on record: time 1.0 months.
The test system of data set [4] is Mus musculus. The experiment in a line: Induction of inflammation in KM mouse assessed as upregulation of TNF-alpha expression in liver tissue at 1.65 mmol/Kg, IG administered via gavage measured for 1 month by Western blot analysis. The data set is classed as functional. As to conditions: time 1.0 months.
Data set [5] deals with Mus musculus. Nature of the data set: Induction of oxidative stress in KM mouse assessed as reduction in GSH level in plasma at 1.65 mmol/Kg, IG administered via gavage measured for 1 month. As to conditions: time 1.0 months. The data set is classed as functional, organism-based.
Data set [6] can be described thus: Hepatotoxicity in KM mouse assessed as infiltration of inflammatory cells at 1.65 mmol/Kg, IG administered via gavage by H and E staining based analysis. The data set is classed as toxicity. The settings on record: in vivo, po.
Data set [7] in a line: Hepatotoxicity in KM mouse assessed as reduction in plasma ALP level at 1.65 mmol/Kg, IG administered via gavage measured for 1 month by automated biochemical analyzer. The data set is classed as toxicity. The settings on record: in vivo, po, 730 h, time 1 months.
The nature of data set [8]: Hepatotoxicity in KM mouse assessed as reduction in plasma ALT level at 1.65 mmol/Kg, IG administered via gavage measured for 1 month by automated biochemical analyzer. The data set is classed as toxicity. The settings on record: in vivo, po, 730 h, time 1 months.
Data set [9] in a line: Hepatotoxicity in KM mouse assessed as blurred edge dissolution at 1.65 mmol/Kg, IG administered via gavage by H and E staining based analysis. The data set is classed as toxicity. The settings on record: in vivo, po.
Data set [10] in a line: Hepatotoxicity in KM mouse assessed as reduction in total bilirubin level in plasma at 1.65 mmol/Kg, IG administered via gavage measured for 1 month by automated biochemical analyzer. The data set is classed as toxicity. As to conditions: po, 730 h, time 1 months.
Data set [11] concerns Mus musculus. Nature of the data set: Induction of oxidative stress in KM mouse assessed as increase in MDA level in plasma at 1.65 mmol/Kg, IG administered via gavage measured for 1 month. The settings on record: time 1.0 months. The data set is classed as functional, organism-based.
The nature of data set [12]: Hepatotoxicity in KM mouse assessed as large areas of hepatocytes swelling at 1.65 mmol/Kg, IG administered via gavage by H and E staining based analysis. The data set is classed as toxicity. As to conditions: in vivo, po.
Data set [13] can be described thus: Hepatotoxicity in KM mouse assessed as nuclear degeneration at 1.65 mmol/Kg, IG administered via gavage by H and E staining based analysis. The data set is classed as toxicity. As to conditions: in vivo, po.
Data set [14] is described as follows: Hepatotoxicity in KM mouse assessed as effect on liver weight at 1.65 mmol/Kg, IG administered via gavage measured for 1 month. The data set is classed as toxicity, tissue-based. The settings on record: in vivo, po, 730 h, time 1 months.
Data set [15] is described as follows: Hepatotoxicity in KM mouse assessed as reduction in liver coefficient at 1.65 mmol/Kg, IG administered via gavage measured for 1 month. The data set is classed as toxicity, tissue-based. As to conditions: in vivo, po, 730 h, time 1 months.
Data set [16] can be described thus: Toxicity in KM mouse assessed as reduction in body weight at 1.65 mmol/Kg, IG administered via gavage measured for 1 month. The settings on record: in vivo, po, 730 h, time 1 months.
Data set [17] in a line: Hepatotoxicity in KM mouse assessed as reduction in plasma AST level at 1.65 mmol/Kg, IG administered via gavage measured for 1 month by automated biochemical analyzer. The data set is classed as toxicity. As to conditions: in vivo, po, 730 h, time 1 months.
The test system of data set [18] is Mus musculus. The experiment in a line: Induction of inflammation in KM mouse assessed as upregulation of IL-6 expression in liver tissue at 1.65 mmol/Kg, IG administered via gavage measured for 1 month by Western blot analysis. The data set is classed as functional. As to conditions: time 1.0 months.
Data set [19] concerns Mus musculus. Nature of the data set: Induction of oxidative stress in KM mouse assessed as reduction in CAT level in plasma at 1.65 mmol/Kg, IG administered via gavage measured for 1 month. The settings on record: time 1.0 months. The data set is classed as functional, organism-based.
Data set [20] concerns Mus musculus. The experiment in a line: Downregulation of p-NF-kappaB p65 protein expression in liver of KM mouse at 1.65 mmol/Kg, IG administered via gavage measured after 1 month by Western blot analysis. The settings on record: time 1.0 months. The data set is classed as functional.
Data set [21] concerns Mus musculus. Nature of the data set: Antioxidant activity in KM mouse assessed as increase in SOD level in plasma at 1.65 mmol/Kg, IG administered via gavage measured for 1 month. The data set is classed as functional, organism-based. The settings on record: time 1.0 months.
The subject of data set [22] is Mus musculus. The experiment in a line: Upregulation of HO-1 protein expression in liver of KM mouse at 1.65 mmol/Kg, IG administered via gavage measured after 1 month by Western blot analysis. The data set is classed as functional. As to conditions: time 1.0 months.
Data set [23] relates to Mus musculus. The experiment in a line: Hepatoprotective activity in KM mouse assessed as improvement in hepatocyte injury at 1.65 mmol/Kg, IG administered via gavage by H and E staining based analysis. The data set is classed as functional, organism-based.
Data set [24] relates to Mus musculus. Nature of the data set: Antioxidant activity in KM mouse assessed as reduction in MDA level in plasma at 1.65 mmol/Kg, IG administered via gavage measured for 1 month. As to conditions: time 1.0 months. The data set is classed as functional, organism-based.
Data set [25] deals with Mus musculus. The experiment in a line: Antiinflammatory activity in KM mouse assessed as downregulation of TNF-alpha expression in liver tissue at 1.65 mmol/Kg, IG administered via gavage measured for 1 month by Western blot analysis. The data set is classed as functional, organism-based. As to conditions: time 1.0 months.
The subject of data set [26] is Mus musculus. Nature of the data set: Antioxidant activity in KM mouse assessed as increase in GSH level in plasma at 1.65 mmol/Kg, IG administered via gavage measured for 1 month. The data set is classed as functional, organism-based. As to conditions: time 1.0 months.
For data set [27], the system named is Mus musculus. The experiment in a line: Hypolipidemic activity in Triton-WR-1339 induced hyperlipidemic KM mouse model assessed as reduction in plasma TG level administered intragastrically via gavage for 7 days. The data set is classed as functional, organism-based. The settings on record: dose 0.029-0.267 mmol/Kg, route ig, time 7.0 day, DDE = dose-dependent effect.

Data set [28] deals with Mus musculus. Nature of the data set: Antiinflammatory activity in KM mouse assessed as downregulation of IL-6 expression in liver tissue at 1.65 mmol/Kg, IG administered via gavage measured for 1 month by Western blot analysis. The data set is classed as functional, organism-based. As to conditions: time 1.0 months.
Data set [29] relates to Mus musculus. The experiment in a line: Hypolipidemic activity in Triton-WR-1339 induced hyperlipidemic KM mouse model assessed as reduction in plasma TC level administered intragastrically via gavage for 7 days. The data set is classed as functional, organism-based. The settings on record: dose 0.029-0.267 mmol/Kg, route ig, time 7.0 day, DDE = dose-dependent effect.
Data set [30] has as its system Mus musculus. Nature of the data set: Antioxidant activity in KM mouse assessed as increase in CAT level in plasma at 1.65 mmol/Kg, IG administered via gavage measured for 1 month. The data set is classed as functional, organism-based. As to conditions: time 1.0 months.
In data set [31] the test system is Mus musculus. The experiment in a line: Upregulation of Nrf2 protein expression in liver of KM mouse at 1.65 mmol/Kg, IG administered via gavage measured after 1 month by Western blot analysis. The data set is classed as functional. The settings on record: time 1.0 months.

The structures appear in SMILES notation. Active and inactive are the calls of the source. The rule behind the calls is not given here.

As to `CCOC(=O)C(C)(C)Oc1ccc(Cl)cc1` [CLOFIBRATE], the result in the data set on Mus musculus [1], in the data set with Mus musculus [3], with Mus musculus [4], in the data set on Mus musculus [5], with Mus musculus [11] and in the data set with Mus musculus [18] was Active. Moreover, the result in the data set with Mus musculus [19] was Active. The Activity result in data set [2], in data set [6], in data set [7], in [8], in data set [9] and in data set [10] was “Toxic” each time. The Activity entry is reported as “Toxic” in data set [12]; “Toxic” in data set [13]; “Toxic” in data set [14]; “Toxic” in data set [15]; “Non-Toxic” in [16]; “Toxic” in data set [17].
With `CC(C)(Oc1ccc(Cl)cc1)C(=O)Oc1ccc(-c2cc(=S)ss2)cc1`, the outcome with Mus musculus [20], in the data set on Mus musculus [21], in the data set on Mus musculus [22], in the data set with Mus musculus [23], in the data set with Mus musculus [24] and with Mus musculus [25] was Active. Moreover, the outcome in the data set on Mus musculus [26], with Mus musculus [28], in the data set on Mus musculus [30] and with Mus musculus [31] was Active. In addition, the Activity entry in data set [2] is “Non-Toxic”; in data set [6], “Non-Toxic”; in data set [7], “Non-Toxic”; in data set [8], “Non-Toxic”; in data set [10], “Non-Toxic”; in the data set with Mus musculus [27], “Dde”. For the same compound, the Activity entry in data set [13] was “Non-Toxic”; in [14], “Non-Toxic”; in data set [15] it was “Non-Toxic”; in [16], “Non-Toxic”; in data set [17], “Non-Toxic”; in the data set with Mus musculus [29], “Dde”.
